19 compounds from patent US11297838B2, “Pesticidal compositions and methods” (CORTEVA AGRISCIENCE LLC, priority 2018, dated 2022) can be followed below.

In general, mortality refers to the share of the test organisms that died.

Assay [1] has as its system Beet Armyworm (Spodoptera exigua, LAPHEG). The experiment in a line: Insecticidal test for beet armyworm (BAW), 128-well diet tray assay. The assay is classed as in vivo. The conditions noted are these: 168 h, read-out: BAW rating, % Control (or Mortality). On the procedure: Insecticidal Test for Beet Armyworm (Spodoptera exigua, LAPHEG) (“BAW”)
Bioassays on beet armyworm (BAW; Spodoptera exigua: Lepidoptera) are conducted using a 128-well diet tray assay. One to five second instar BAW larvae are placed in each well (3 mL) of the diet tray that had been previously filled with 1 mL of artificial diet to which 50 μg/cm^2 of the test compound (dissolved in 50 μL of 90:10 acetone-water mixture) had been applied (to each of eight wells) and then allowed to dry. Trays are covered with a clear self-adhesive cover, vented to allow gas exchange, and held at 25° C., 14:10 light-dark for five to seven days. Percent mortality is recorded for the larvae in each well; activity in the eight wells is then averaged. In the reporting of the results, the “BAW & CL Rating Table” was used.

Assay [2] deals with Cabbage Looper (Trichloplusia ni, TRIPNI). The experiment in a line: Insecticidal test for cabbage looper (CL), 128-well diet tray assay. The following applies: Trichoplusia ni, 168 h, read-out: CL rating, % Control (or Mortality). The assay is classed as in vivo. On the procedure:
Insecticidal Test for Cabbage Looper (Trichloplusia ni, TRIPNI) (“CL”)
Bioassays on cabbage looper (CL; Trichloplusia ni: Lepidoptera) are conducted using a 128-well diet tray assay. One to five second instar CL larvae are placed in each well (3 mL) of the diet tray that had been previously filled with 1 mL of artificial diet to which 50 μg/cm^2 of the test compound (dissolved in 50 μL of 90:10 acetone-water mixture) had been applied (to each of eight wells) and then allowed to dry. Trays are covered with a clear self-adhesive cover, vented to allow gas exchange, and held at 25° C., 14:10 light-dark for five to seven days. Percent mortality is recorded for the larvae in each well; activity in the eight wells is then averaged. In the reporting of the results, the “BAW & CL Rating Table” was used.

Where [3] appears, read: 50 μg/cm^2 on artificial diet, second instar larvae, five to seven days, 25° C.

Where two headings read alike, the source gives them in different places.

Turning to `CC(C)c1ccc(Cl)cc1N1C(=O)CS/C1=N\C(=O)OCC(F)c1ccc(-c2ncn(-c3ccc(OC(F)(F)F)cc3)n2)cc1` (centres unmarked) [A23, 2-Fluoro-2-(4-(1-(4-(trifluoromethoxy)phenyl)-1H-1,2,4-triazol-3-yl)phenyl)ethyl (Z)-(3-(5-chloro-2-isopropylphenyl)-4-oxothiazolidin-2-ylidene)carbamate], the mortality at 50 µg/cm2 in assay [1] (setting [3]) and in assay [2] (setting [3]) was 50 to 100% throughout.

In the case of `Cc1ccc(C(C)C)c(-n2ccs/c2=N\C(=O)OCCc2ccc(-c3ncn(-c4ccc(OC(F)(F)F)cc4)n3)cc2)c1` [A53, 4-(1-(4-(Trifluoromethoxy)phenyl)-1H-1,2,4-triazol-3-yl)phenethyl (Z)-(3-(2-isopropyl-5-methylphenyl)thiazol-2(3H)-ylidene)carbamate], the mortality at 50 µg/cm2 in assay [1] (setting [3]) and in assay [2] (setting [3]) was 50 to 100% each time.

Take `O=C(/N=C1\SCC(=O)N1c1cc(Cl)ccc1OC(F)(F)F)OCC(F)c1ccc(-c2ncn(-c3ccc(OC(F)(F)F)cc3)n2)cc1` (centres unmarked) [A36, 2-Fluoro-2-(4-(1-(4-(trifluoromethoxy)phenyl)-1H-1,2,4-triazol-3-yl)phenyl)ethyl (Z)-(3-(5-chloro-2-(trifluoromethoxy)phenyl)-4-oxothiazolidin-2-ylidene)carbamate]: the mortality at 50 µg/cm2 in assay [1] (setting [3]) and in assay [2] (setting [3]) was 50 to 100% throughout.

Turning to `CCc1cccc(C)c1N1C(=O)CS/C1=N\C(=O)OC(C)Cc1ccc(-c2ncn(-c3ccc(OC(F)(F)F)cc3)n2)cc1` (centres unmarked) [A52, 1-(4-(1-(4-(Trifluoromethoxy)phenyl)-1H-1,2,4-triazol-3-yl)phenyl)propan-2-yl (Z)-(3-(2-ethyl-6-methylphenyl)-4-oxothiazolidin-2-ylidene)carbamate], the mortality at 50 µg/cm2 in assay [1] (setting [3]) and in assay [2] (setting [3]) was 50 to 100% in each case.

Regarding `COc1ccc(N2C(=O)CS/C2=N\C(=O)OCC(F)c2ccc(-c3ncn(-c4ccc(OC(F)(F)F)cc4)n3)cc2)c(C)c1` (centres unmarked) [A37, 2-Fluoro-2-(4-(1-(4-(trifluoromethoxy)phenyl)-1H-1,2,4-triazol-3-yl)phenyl)ethyl (Z)-(3-(4-methoxy-2-methylphenyl)-4-oxothiazolidin-2-ylidene)carbamate], the mortality at 50 µg/cm2 in assay [1] (setting [3]) was 0%; in assay [2] (setting [3]) it was 50 to 100%.

In the case of `Cc1ccc(C(C)C)c(N2C(=O)CS/C2=N\C(=O)OCC(F)c2ccc(-c3ncn(-c4ccc(OC(F)(F)F)cc4)n3)cc2)c1` (centres unmarked) [A20, 2-fluoro-2-(4-(1-(4-(trifluoromethoxy)phenyl)-1H-1,2,4-triazol-3-yl)phenyl)ethyl (Z)-(3-(2-isopropyl-5-methylphenyl)-4-oxothiazolidin-2-ylidene)carbamate], the mortality at 50 µg/cm2 in assay [1] (setting [3]) and in assay [2] (setting [3]) was 50 to 100% throughout.

For `Cc1ccc(C(C)C)c(N2C(=O)CS/C2=N\C(=O)OCC(Cl)c2ccc(-c3ncn(-c4ccc(OC(F)(F)F)cc4)n3)cc2)c1` (centres unmarked) [A46, 2-Chloro-2-(4-(1-(4-(trifluoromethoxy)phenyl)-1H-1,2,4-triazol-3-yl)phenyl)ethyl (Z)-(3-(2-isopropyl-5-methylphenyl)-4-oxothiazolidin-2-ylidene)carbamate], the mortality at 50 µg/cm2 in assay [1] (setting [3]) and in assay [2] (setting [3]) was 50 to 100% in each case.

As to `COCc1ccccc1N1C(=O)CS/C1=N\C(=O)OCCc1ccc(-c2ncn(-c3ccc(OC(F)(F)F)cc3)n2)cc1` [A27, 4-(1-(4-(trifluoromethoxy)phenyl)-1H-1,2,4-triazol-3-yl)phenethyl (Z)-(3-(2-(methoxymethyl)phenyl)-4-oxothiazolidin-2-ylidene)carbamate], the mortality at 50 µg/cm2 in assay [1] (setting [3]) and in assay [2] (setting [3]) was 50 to 100% in each case.

Turning to `Cc1ccc(OCC(F)(F)F)c(N2C(=O)CS/C2=N\C(=O)OCC(F)c2ccc(-c3ncn(-c4ccc(OC(F)(F)F)cc4)n3)cc2)c1` (centres unmarked) [A21, 2-Fluoro-2-(4-(1-(4-(trifluoromethoxy)phenyl)-1H-1,2,4-triazol-3-yl)phenyl)ethyl (Z)-(3-(5-methyl-2-(2,2,2-trifluoroethoxy)phenyl)-4-oxothiazolidin-2-ylidene)carbamate], the mortality at 50 µg/cm2 in assay [1] (setting [3]) and in assay [2] (setting [3]) was 50 to 100% in each case.

For the compound `CCc1cccc(C)c1N1C(=O)CS/C1=N\C(=O)OCC(F)c1ccc(-c2ncn(-c3ccc(OC(F)(F)F)cc3)n2)cc1` (centres unmarked) [A42, 2-Fluoro-2-(4-(1-(4-(trifluoromethoxy)phenyl)-1H-1,2,4-triazol-3-yl)phenyl)ethyl (Z)-(3-(2-ethyl-6-methylphenyl)-4-oxothiazolidin-2-ylidene)carbamate], the mortality at 50 µg/cm2 was in the range of 0 to 50% in assay [1] (setting [3]) and 50 to 100% in assay [2] (setting [3]).

For the compound `O=C(/N=C1\SCC(=O)N1c1cccc2c1CCCC2)OCCc1ccc(-c2ncn(-c3ccc(OC(F)(F)F)cc3)n2)cc1` [A33, 4-(1-(4-(Trifluoromethoxy)phenyl)-1H-1,2,4-triazol-3-yl)phenethyl (Z)-(4-oxo-3-(5,6,7,8-tetrahydronaphthalen-1-yl)thiazolidin-2-ylidene)carbamate], the results for the mortality at 50 µg/cm2 in assay [1] (setting [3]) and in assay [2] (setting [3]) were 0% and 50 to 100%, respectively.

For the compound `Cc1ccc(C(C)C)c(-n2ccs/c2=N\C(=O)OC(C)Cc2ccc(-c3ncn(-c4ccc(OC(F)(F)F)cc4)n3)cc2)c1` (centres unmarked) [A55, 1-(4-(1-(4-(Trifluoromethoxy)phenyl)-1H-1,2,4-triazol-3-yl)phenyl)propan-2-yl (Z)-(3-(2-isopropyl-5-methylphenyl)thiazol-2(3H)-ylidene)carbamate], the mortality at 50 µg/cm2 in assay [1] (setting [3]) and in assay [2] (setting [3]) was 50 to 100% in each case.

On to `CCOc1ccccc1N1C(=O)CS/C1=N\C(=O)OC(C)Cc1ccc(-c2ncn(-c3ccc(OC(F)(F)F)cc3)n2)cc1` (centres unmarked) [A51, 1-(4-(1-(4-(Trifluoromethoxy)phenyl)-1H-1,2,4-triazol-3-yl)phenyl)propan-2-yl (Z)-(3-(2-ethoxyphenyl)-4-oxothiazolidin-2-ylidene)carbamate], for which the mortality at 50 µg/cm2 in assay [1] (setting [3]) and in assay [2] (setting [3]) was 50 to 100% each time.

For `Cc1ccc(C(C)C)c(N2C(=O)CS/C2=N\C(=O)OCCc2ccc(-c3ncn(-c4ccc(OC(F)(F)C(F)(F)F)cc4)n3)cc2)c1` [A44, 4-(1-(4-(Perfluoroethoxy)phenyl)-1H-1,2,4-triazol-3-yl)phenethyl (Z)-(3-(2-isopropyl-5-methylphenyl)-4-oxothiazolidin-2-ylidene)carbamate], the mortality at 50 µg/cm2 in assay [1] (setting [3]) and in assay [2] (setting [3]) was 50 to 100% throughout.

With `Cc1cc(Cl)c(N2C(=O)CS/C2=N\C(=O)OCC(F)c2ccc(-c3ncn(-c4ccc(OC(F)(F)F)cc4)n3)cc2)cc1C` (centres unmarked) [A38, 2-Fluoro-2-(4-(1-(4-(trifluoromethoxy)phenyl)-1H-1,2,4-triazol-3-yl)phenyl)ethyl (Z)-(3-(2-chloro-4,5-dimethylphenyl)-4-oxothiazolidin-2-ylidene)carbamate], the mortality at 50 µg/cm2 was 0% in assay [1] (setting [3]) and 50 to 100% in assay [2] (setting [3]).

As to `O=C(/N=C1\SCC(=O)N1c1cc(Cl)ccc1OC(F)(F)F)OCCc1ccc(-c2ncn(-c3ccc(OC(F)(F)F)cc3)n2)cc1` [A29, 4-(1-(4-(Trifluoromethoxy)phenyl)-1H-1,2,4-triazol-3-yl)phenethyl (Z)-(3-(5-chloro-2-(trifluoromethoxy)phenyl)-4-oxothiazolidin-2-ylidene)carbamate], the mortality at 50 µg/cm2 in assay [1] (setting [3]) and in assay [2] (setting [3]) was 50 to 100% in each case.

With `Cc1ccc(C(C)C)c(N2C(=O)CS/C2=N\C(=O)Oc2ccc(-c3ncn(-c4ccc(OC(F)(F)F)cc4)n3)cc2)c1` [A3, 4-(1-(4-(Trifluoromethoxy)phenyl)-1H-1,2,4-triazol-3-yl)phenyl (Z)-(3-(2-isopropyl-5-methylphenyl)-4-oxothiazolidin-2-ylidene)carbamate], the mortality at 50 µg/cm2 in assay [1] and in assay [2] was 0% in each case.

For the compound `Cc1ccc(C(C)C)c(-n2ccs/c2=N\C(=O)OCC(F)c2ccc(-c3ncn(-c4ccc(OC(F)(F)F)cc4)n3)cc2)c1` (centres unmarked) [A54, 2-Fluoro-2-(4-(1-(4-(trifluoromethoxy)phenyl)-1H-1,2,4-triazol-3-yl)phenyl)ethyl (Z)-(3-(2-isopropyl-5-methylphenyl)thiazol-2(3H)-ylidene)carbamate], the mortality at 50 µg/cm2 in assay [1] (setting [3]) and in assay [2] (setting [3]) was 50 to 100% each time.

As for `CC(C)c1ccccc1N1C(=O)CS/C1=N\C(=O)OCC(Cl)c1ccc(-c2ncn(-c3ccc(OC(F)(F)F)cc3)n2)cc1` (centres unmarked) [A47, 2-Chloro-2-(4-(1-(4-(trifluoromethoxy)phenyl)-1H-1,2,4-triazol-3-yl)phenyl)ethyl (Z)-(3-(2-isopropylphenyl)-4-oxothiazolidin-2-ylidene)carbamate], the mortality at 50 µg/cm2 in assay [1] (setting [3]) and in assay [2] (setting [3]) was 50 to 100% each time.
